Assay results as given in patent US11617740B2, “Chemical inhibitors of Mycobacterium tuberculosis DosRST signaling and persistence” (priority 2017, dated 2023).
Values after ≈ are worked out from the molar mass of the structure shown. “Also recorded” adds a separate entry of the source. Where two headings read alike, the source gives them in different places.

Key:
[1] = system: DosRST pathway, CDC1551 (hspX′::GFP) reporter strain; assay: microbe, parasite or virus in culture; assay type: cell-based
[2] = system: DosR-regulated genes hspX and tgs1; assay type: cell-based; settings: for induction of hspX by the inducer / induction of tgs1 by the inducer: 2 h induction; for inhibition of hspX following DETA-NONOate treatment / inhibition of tgs1 following DETA-NONOate treatment / inhibition of hspX transcripts following vitamin C treatment / inhibition of tgs1 transcripts following vitamin C treatment: pretreated 24 h; for inhibition of hspX following DETA-NONOate treatment / inhibition of tgs1 following DETA-NONOate treatment: DETA-NONOate 2 h; for inhibition of hspX transcripts following vitamin C treatment / inhibition of tgs1 transcripts following vitamin C treatment: vitamin C 2 h
[3] = not given; remark: listed apart in the source
DosR = DosR (Mycobacterium tuberculosis, UniProt P9WMF9); assay: Electrophoretic mobility shift assay (EMSA), DosR binding of hspX promoter DNA; settings: for impact on DosR binding of DNA (words): 1-80 μM
DosR, sequence (P9WMF9 whole entry, looked up): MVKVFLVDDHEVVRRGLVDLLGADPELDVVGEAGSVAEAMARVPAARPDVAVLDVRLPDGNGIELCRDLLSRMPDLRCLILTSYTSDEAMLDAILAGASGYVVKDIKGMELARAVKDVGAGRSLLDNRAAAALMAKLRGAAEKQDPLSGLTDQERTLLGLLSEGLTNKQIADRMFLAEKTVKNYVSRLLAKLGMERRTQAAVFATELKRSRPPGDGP

Mtb = assay type: cell-based, Mycobacterium tuberculosis
[4] = system: DosR regulated genes dosR, hspX, tgs1; assay type: cell-based; settings: for inhibition of hspX and tgs1 gene expression during hypoxia: 10 μM, real-time PCR; for downregulation of dosR / downregulation of hspX / downregulation of tgs1: 40 μM, 6 d, in vitro
[5] = system: DosR-controlled genes hspX and tgs1; assay type: cell-based; settings: 40 μM, 48 h, infected macrophages
DosS = DosS (Mycobacterium tuberculosis, UniProt P9WGK3); assay: DosS autophosphorylation assay; assay type: biochemical; settings: 10-40 μM; HC103A 40 μM
DosS, sequence (P9WGK3 whole entry): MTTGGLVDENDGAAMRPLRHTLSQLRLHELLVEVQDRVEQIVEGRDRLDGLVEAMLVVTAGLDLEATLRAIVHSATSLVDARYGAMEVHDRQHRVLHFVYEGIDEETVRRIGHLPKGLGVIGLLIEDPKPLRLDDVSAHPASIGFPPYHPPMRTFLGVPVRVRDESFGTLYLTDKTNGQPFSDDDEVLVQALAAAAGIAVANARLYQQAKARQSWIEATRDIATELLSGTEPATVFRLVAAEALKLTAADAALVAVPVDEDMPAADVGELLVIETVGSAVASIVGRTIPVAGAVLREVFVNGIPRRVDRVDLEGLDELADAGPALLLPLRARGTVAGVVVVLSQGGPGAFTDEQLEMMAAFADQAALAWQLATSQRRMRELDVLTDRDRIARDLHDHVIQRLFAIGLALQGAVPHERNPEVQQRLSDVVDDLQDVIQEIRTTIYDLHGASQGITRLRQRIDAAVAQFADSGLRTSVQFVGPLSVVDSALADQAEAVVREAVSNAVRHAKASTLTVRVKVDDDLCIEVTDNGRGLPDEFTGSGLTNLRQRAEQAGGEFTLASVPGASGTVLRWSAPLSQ
Method: Autophosphorylation assay. The DosS autophosphorylation assay was performed as previously described. DosS protein was treated with 10 μM, 20 μM or 40 μM of HC104A, or HC106A. DMSO and 40 μM HC103A were also included as […].

DosR regulon = assay type: cell-based; settings: WT CDC1551, 40 μM; for genes from dosR regulon inhibited: >2-fold, q<0.05
TAG accumulation in Mtb = assay type: cell-based; settings: 40 μM, 6 d, vs DMSO treated WT
Mtb CDC1551 = assay type: cell-based; settings: for survival relative to DMSO control during NRP: 40 μM, 10 days
[6] = system: DosRST signaling, CDC1551 (hspX′::GFP); assay: microbe, parasite or virus in culture; assay type: cell-based
[7] = system: DosR-regulated genes hspX and tgs1; assay type: cell-based; settings: 20 μM, 6 d
[8] = Mycobacterium tuberculosis, 144 h, CDC1551 (hspX′::GFP), 6 d, read-out: EC50 of DosRST-dependent GFP fluorescence inhibition (FI)
[9] = Mycobacterium tuberculosis, Table 3, HC104 series, whole cell assay, read-out: EC50

## O=C(Nc1ccccc1)Nc1ccno1 [MSU-33189, 3-(1,2-oxazol-5-yl)-1-phenylurea]
[1]; [8]
  EC50: 630 nM

## CC(C)(C)c1ccc(NC(=O)Nc2ccno2)cc1 [MSU-41442, 1-(4-tert-butylphenyl)-3-(1,2-oxazol-5-yl)urea]
other
  melting point: 163 °C
physchem
  solubility: > 100 µM

## O=C(Nc1ccc(Cl)nc1)Nc1ccno1 [MSU-39448, 1-(6-chloropyridin-3-yl)-3-(1,2-oxazol-5-yl)urea]
other
  melting point: 158 to 159 °C

## O=C1O[C@H]([C@@H](O)CO)C(O)=C1O [vitamin C, reference compound]
[2]
  induction of hspX by the inducer: 2162 fold
  induction of tgs1 by the inducer: 58 fold

## COC(=O)c1ccc(NC(=O)Nc2ccno2)cc1 [MSU-41465, methyl 4-{[(1,2-oxazol-5-yl)carbamoyl]amino}benzoate]
[3]; microsomes, 0.5 h
  Microsomes (% remaining @ 30 minutes): 73 % remaining
other
  melting point: 194 °C

## O=C(Nc1ccc(Br)cc1)Nc1ccno1 [MSU-41464, 1-(4-bromophenyl)-3-(1,2-oxazol-5-yl)urea]
[3]; 30 minutes
  Microsomes (% remaining @ 30 minutes): 109% remaining
other
  melting point: 183 to 184 °C

## NCCN(CCN)/[N+]([O-])=N/O [DETA-NONOate, reference compound]
[2]
  induction of hspX by the inducer: 3024 fold
  induction of tgs1 by the inducer: 113 fold

## O=C(Nc1ccno1)NC1CCCC1 [MSU-41546, 1-cyclopentyl-3-(1,2-oxazol-5-yl)urea]
other
  melting point: 182 °C

## O=C(O)CCCN1C(=O)c2cccc3cccc(c23)C1=O [virstatin, reference compound]
DosR; 2 μM DosR
  impact on DosR binding of DNA (words): no impact on DosR binding of DNA
DosR; 2 μM DosR, listed as Virstatin
  impact on DosR binding of DNA (words): did not impact DosR binding of promoter DNA
[1]
  activity in the whole cell Mtb reporter assay: did not have any impact on DosRST signaling; also recorded: nor did virstatin inhibit the DosRST pathway; also recorded: not effect

## O=C(Nc1ccno1)NC1CCCCC1 [MSU-42002, 1-cyclohexyl-3-(1,2-oxazol-5-yl)urea]
other
  melting point: 180 °C

## CN(C)CCCN1C(=O)c2cccc3c(Br)ccc(c23)C1=O [HC104A]
Mtb
  impact on Mtb growth: minimal impact
[2]
  inhibition of hspX following DETA-NONOate treatment: 302 fold
  inhibition of tgs1 following DETA-NONOate treatment: 6.6 fold
  inhibition of hspX transcripts following vitamin C treatment: 3.4 fold
  inhibition of tgs1 transcripts following vitamin C treatment: no effect
[4]
  inhibition of hspX and tgs1 gene expression during hypoxia: strongly inhibited
  downregulation of dosR: 6 fold
  downregulation of hspX: 570 fold
  downregulation of tgs1: 13 fold
[5]
  inhibition of hspX induction: 185 fold
  inhibition of tgs1 induction: 10 fold
DosS
  effect on DosS autophosphorylation: no inhibitory activity; also recorded: inhibitory activity was not observed; also recorded: no effect
DosR regulon
  additional genes repressed that were not repressed in CDC1551(ΔdosR): 119 genes
  genes from dosR regulon inhibited: 26 genes
DosR; 2 μM DosR, doses 1-80 μM
  concentration at which inhibition of DosR DNA binding begins: 10 µM
DosR; 20 μM, 2 μM DosR
  % free DNA: 72%
DosR; 30 μM, 2 μM DosR
  % free DNA: 89%
DosR; 40 μM, 2 μM DosR
  % free DNA: 92%
  inhibition of DosR DNA binding compared to DMSO: ~22 fold
DosR; 60 μM, 2 μM DosR
  % free DNA: 96%
DosR; 80 μM, 2 μM DosR (normalised as 100%)
  % free DNA: 100%
DosR; preliminary, data not shown, read-out: IC50 for inhibition of DosR-DNA binding
  IC50: ~10000 nM
TAG accumulation in Mtb
  reduction of TAG accumulation: ~50%
[1]; [8]
  EC50: 9800 nM
[1]; [9]
  EC50: 9800 nM
Mtb CDC1551
  survival relative to DMSO control during NRP: no impact on Mtb survival

## O=C(Nc1ccc(-c2ccccc2)cc1)Nc1ccno1 [MSU-41443, 1-{[1,1′-biphenyl]-4-yl}-3-(1,2-oxazol-5-yl)urea]
other
  melting point: 193 °C
physchem
  solubility: 14 µM (≈ 3.91 µg/mL)

## O=C(NCCc1ccccc1)Nc1ccno1 [MSU-42004, 3-(1,2-oxazol-5-yl)-1-(2-phenylethyl)urea]
other
  melting point: 165 °C

## CC(C)CNC(=O)Nc1ccno1 [MSU-41542, 3-(2-methylpropyl)-1-(1,2-oxazol-5-yl)urea]
other
  melting point: 187 °C

## O=C(Nc1ccc(Cl)c(Cl)c1)Nc1ccno1 [MSU-39452, 1-(3,4-dichlorophenyl)-3-(1,2-oxazol-5-yl)urea]
other
  melting point: 164 °C

## O=C(Nc1cccc(O)c1)c1cccc(NC(=O)c2cccs2)c1 [HC103A, reference compound]
DosS
  effect on DosS autophosphorylation: strongly inhibited

## COc1ccc(NC(=O)Nc2ccno2)cc1 [MSU-39447, 1-(4-methoxyphenyl)-3-(1,2-oxazol-5-yl)urea]
other
  melting point: 166 to 167 °C
[1]; [8]
  EC50: 610 nM
physchem
  solubility: > 100 µM

## CN1C(=O)c2cccc3c(Br)ccc(c23)C1=O [HC104G]
[1]
  fold less active than HC104A: ~10 fold
[1]; [9]
  EC50: 43800 nM
[1]; whole cell assay
  fold less active than HC104A: ~5 fold

## O=C(Nc1cccc(Cl)c1)Nc1ccno1 [MSU-39445, 1-(3-chlorophenyl)-3-(1,2-oxazol-5-yl)urea]
other
  melting point: 159 °C (dec.)
[1]; [8]
  EC50: 750 nM
physchem
  solubility: > 100 µM

## O=C(Nc1ccno1)Nc1ccno1 [MSU-39444, 1,3-bis(1,2-oxazol-5-yl)urea]
[1]; CDC1551 (hspX′::GFP), 6 d, read-out: EC50 of DosRST-dependent GFP fluorescence inhibition (FI)
  EC50: ~2000 nM
[1]; [8]
  EC50: 1700 nM

## O=C(Nc1cccc(Br)c1)Nc1ccno1 [MSU-42003, 1-(3-bromophenyl)-3-(1,2-oxazol-5-yl)urea]
other
  melting point: 157 °C

## O=C(Nc1ccc(C(F)(F)F)cc1)Nc1ccno1 [MSU-41463, 3-(1,2-oxazol-5-yl)-1-[4-(trifluoromethyl)phenyl]urea]
[3]; 30 minutes
  Microsomes (% remaining @ 30 minutes): 84 % remaining
other
  melting point: 178 °C

## O=C(Nc1ccno1)Nc1ccc(Cl)cc1Cl [HC106A]
Mtb
  impact on Mtb growth: minimal impact
[2]
  inhibition of hspX following DETA-NONOate treatment: 362 fold
  inhibition of tgs1 following DETA-NONOate treatment: 151 fold
  inhibition of hspX transcripts following vitamin C treatment: 78 fold
  inhibition of tgs1 transcripts following vitamin C treatment: 14 fold
[4]
  inhibition of hspX and tgs1 gene expression during hypoxia: repressed to undetectable levels
  downregulation of dosR: 49 fold
  downregulation of hspX: 1360 fold
  downregulation of tgs1: 1424 fold
[4]; listed as H106A
  inhibition of hspX and tgs1 gene expression during hypoxia: strongly inhibited
[5]
  inhibition of hspX induction: 6 fold
  inhibition of tgs1 induction: 4 fold
[6]; 200 nM HC106A alone
  effect on DosRST signaling alone: no effect on its own
[7]; pVV16-DosS
  inhibition of hspX, DosS overexpression: 23 fold
  inhibition of tgs1, DosS overexpression: 16.5 fold
[7]; pVV16 empty vector
  downregulation of hspX, vector control: 2331 fold
  downregulation of tgs1, vector control: 3470 fold
DosS
  effect on DosS autophosphorylation: no inhibitory activity; also recorded: no effect
DosR regulon
  additional genes repressed that were not repressed in CDC1551(ΔdosR): 35 genes
  genes from dosR regulon inhibited: 53 genes
TAG accumulation in Mtb
  reduction of TAG accumulation: ~50%
physchem
  solubility: 110 µM (≈ 29.9 µg/mL)
Mtb CDC1551
  survival relative to DMSO control during NRP: 50%
Mtb CDC1551; hypoxic shift-down model
  reduction of survival as compared to DMSO control: 50%

## O=C(Nc1ccc(Cl)cc1)Nc1ccno1 [HC106F, 1-(4-chlorophenyl)-3-(1,2-oxazol-5-yl)urea]
[3]; microsomes, 0.5 h
  Microsomes (% remaining @ 30 minutes): 115% remaining
other
  melting point: 183 °C
[1]
  fold enhanced activity relative to HC106A: ~10 fold
[1]; whole cell assay
  fold enhanced activity relative to HC106A: ~2 fold
physchem
  solubility: > 200 µM

## O=C(NCc1ccccc1)Nc1ccno1 [MSU-41462, 1-benzyl-3-(1,2-oxazol-5-yl)urea]
other
  melting point: 128 to 130 °C

## O=C(Nc1ccon1)Nc1ccc(Cl)cc1Cl [HC106C]
[1]
  activity in the whole cell Mtb reporter assay: no activity

## O=C(Nc1ccc(Cl)cn1)Nc1ccno1 [MSU-39450, 1-(5-chloropyridin-2-yl)-3-(1,2-oxazol-5-yl)urea]
other
  melting point: 122 to 123 °C

## C[C@@H]1CC[C@H]2[C@@H](C)C(=O)O[C@@H]3O[C@@]4(C)CC[C@@H]1[C@]32OO4 [artemisinin, reference compound]
[4]; maximum inhibition
  maximum inhibition of hspX: 51 fold
  maximum inhibition of tgs1: 166 fold
[6]; Mycobacterium tuberculosis, 500 nM artemisinin alone
  inhibition at 0.5 µM: 40%

## O=C(Nc1ccc(COc2ccccc2)cc1)Nc1ccno1 [MSU-41545, 3-(1,2-oxazol-5-yl)-1-[4-(phenoxymethyl)phenyl]urea]
other
  melting point: 164 °C

## CN(C)CCCN1C(=O)c2cccc3cccc(c23)C1=O [HC104B]
[1]
  activity in the whole cell Mtb reporter assay: complete loss of activity
[1]; [9]
  EC50: > 200000 nM
